The results in this text go back to patent publication US8461151B2, “Aryl-/heteroaryl-cyclohexenyl-tetraazabenzo[e]azulenes” (Hoffmann-La Roche Inc., priority 2010, dated 2013).

Where a name gives a salt, the structure may show the parent alone.

The assay addresses T1, human V1a receptor (Homo sapiens, UniProt P37288).
T1 construct: expressed in transfected cells; host or cells: HEK293 cells, transiently transfected; membranes
In words: human V1a receptor binding studies (3H-Vasopressin SPA, membranes of transfected HEK293 cells). The note with it: 3H-Vasopressin displacement, HEK293 cell membranes, SPA beads, 1 h at room temperature, Ki by Cheng-Prussoff from IC50, read-out: pKi (hV1a) (converted). The method, then: The human V1a receptor was cloned by RT-PCR from total human liver RNA. The coding sequence was subcloned in an expression vector after sequencing to confirm the identity of the amplified sequence. […] Cell membranes were prepared from HEK293-cells transiently transfected with the expression vector and grown in 20 liter fermenters with the following protocol.
50 g of cells are resuspended in 30 ml freshly prepared ice cold Lysis buffer (50 mM HEPES, 1 mM EDTA, 10 mM magnesium dichloride adjusted to pH=7.4+ complete cocktail of protease inhibitor (Roche Diagnostics)). Homogenized with Polytron for 1 min and sonicated on ice for 2×2 minutes at 80% intensity (Vibracell sonicator). The preparation is centrifuged 20 min at 500 g at 4° C., the pellet is discarded and the supernatant centrifuged 1 hour at 43,000 g at 4° C. (19,000 rpm). The pellet is resuspended in 12.5 ml Lysis buffer+12.5 ml sucrose 20% and homogenized using a Polytron for 1-2 min. The protein concentration is determined by the Bradford method and aliquots are stored at −80° C. until use. For binding studies 60 mg Yttrium silicate SPA beads (Amersham®) are mixed with an aliquot of membrane in binding buffer (50 mM Tris, 120 mM sodium chloride, 5 mM potassium chloride, 2 mM calcium dichloride, 10 mM magnesium dichloride) for 15 minutes with mixing. 50 μl of bead/membrane mixture is then added to each well of a 96 well plate, followed by 50 μl of 4 nM 3H-Vasopressin (American Radiolabeled Chemicals). For total binding measurement 100 μl of binding buffer are added to the respective wells, for non-specific binding 100 μl of 8.4 mM cold vasopressin and for compound testing 100 μl of a serial dilution of each compound in 2% dimethyl sulfoxide. The plate is incubated 1 h at room temperature, centrifuged 1 min at 1000 g and counted on a Packard Top-Count. Non-specific binding counts are subtracted from each well and data is normalized to the maximum specific binding set at 100%. To calculate an IC50 the curve is fitted using a non-linear regression model (XLfit) and the Ki is calculated using the Cheng-Prussoff equation.

T1 sequence (P37288 whole entry): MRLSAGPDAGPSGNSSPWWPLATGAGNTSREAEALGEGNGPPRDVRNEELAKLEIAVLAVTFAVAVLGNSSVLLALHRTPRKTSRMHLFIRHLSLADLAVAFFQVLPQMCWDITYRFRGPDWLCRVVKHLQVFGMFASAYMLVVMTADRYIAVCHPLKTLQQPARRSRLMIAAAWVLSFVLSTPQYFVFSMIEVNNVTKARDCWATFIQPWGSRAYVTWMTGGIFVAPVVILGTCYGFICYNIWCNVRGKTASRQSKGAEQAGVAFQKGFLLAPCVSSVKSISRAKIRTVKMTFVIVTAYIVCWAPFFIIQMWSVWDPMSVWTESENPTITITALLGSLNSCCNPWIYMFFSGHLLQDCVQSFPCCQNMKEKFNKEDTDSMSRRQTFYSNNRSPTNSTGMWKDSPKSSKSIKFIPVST

Regarding `Fc1ccc(C2=CCC(c3nnc4n3-c3ccc(Cl)cc3CNC4)CC2)cc1` (racemic) [Example 6, (RS)-8-Chloro-1-[4-(4-fluoro-phenyl)-cyclohex-3-enyl]-5,6-dihydro-4H-2,3,5,10b-tetraaza-benzo[e]azulene hydrochloride], the Ki was 29.5 nM. In the case of `COc1ccc(F)cc1C1=CCC(c2nnc3n2-c2ccc(Cl)cc2CNC3)CC1` (racemic) [Example 18, (RS)-8-Chloro-1-[4-(5-fluoro-2-methoxy-phenyl)-cyclohex-3-enyl]-5,6-dihydro-4H-2,3,5,10b-tetraaza-benzo[e]azulene hydrochloride] it was 97.7 nM; in that of `COc1ccc(F)cc1C1=CCC(c2nnc3n2-c2ccc(Cl)cc2CN(C(=O)OC(C)(C)C)C3)CC1` (racemic) [Example 17, (RS)-8-Chloro-1-[4-(5-fluoro-2-methoxy-phenyl)-cyclohex-3-enyl]-4H,6H-2,3,5,10b-tetraaza-benzo[e]azulene-5-carboxylic acid tert-butyl ester], 20.4 nM. The result for `Cc1nc(C2=CCC(c3nnc4n3-c3ccc(Cl)cc3CN(C)C4)CC2)cs1` (racemic) [Example 36, (RS)-8-Chloro-5-methyl-1-[4-(2-methyl-thiazol-4-yl)-cyclohex-3-enyl]-5,6-dihydro-4H-2,3,5,10b-tetraaza-benzo[e]azulene] reads 13.5 nM; that for `Fc1ccnc(C2=CCC(c3nnc4n3-c3ccc(Cl)cc3CNC4)CC2)c1` (racemic) [Example 26, (RS)-8-Chloro-1-[4-(4-fluoro-pyridin-2-yl)-cyclohex-3-enyl]-5,6-dihydro-4H-2,3,5,10b-tetraaza-benzo[e]azulene], 110 nM; that for `CC(C)(C)OC(=O)N1Cc2cc(Cl)ccc2-n2c(nnc2C2CC=C(c3ncccc3F)CC2)C1` (single isomer, unassigned; (+)) [Example 29, (+)-8-Chloro-1-[-4-(3-fluoro-pyridin-2-yl)-cyclohex-3-enyl]-4H,6H-2,3,5,10b-tetraaza-benzo[e]azulene-5-carboxylic acid tert-butyl ester], 0.794 nM. In the case of `Cc1ccccc1C1=CCC(c2nnc3n2-c2ccc(Cl)cc2CN(C)C3)CC1` (racemic) [Example 4, (RS)-8-Chloro-5-methyl-1-(4-o-tolyl-cyclohex-3-enyl)-5,6-dihydro-4H-2,3,5,10b-tetraaza-benzo[e]azulene] it was 2.09 nM. Turning to `Clc1ccc2c(c1)CNCc1nnc(C3CC=C(c4cccc5ccccc45)CC3)n1-2` (racemic) [Example 15, (RS)-8-Chloro-1-(4-naphthalen-1-yl-cyclohex-3-enyl)-5,6-dihydro-4H-2,3,5,10b-tetraaza-benzo[e]azulene hydrochloride], the Ki was 112 nM. In the case of `CC(C)(C)OC(=O)N1Cc2cc(Cl)ccc2-n2c(nnc2C2CC=C(c3cc(F)ccn3)CC2)C1` (racemic) [Example 25, (RS)-8-Chloro-1-[4-(4-fluoro-pyridin-2-yl)-cyclohex-3-enyl]-4H,6H-2,3,5,10b-tetraaza-benzo[e]azulene-5-carboxylic acid tert-butyl ester] it was 4.68 nM; in that of `Fc1cccnc1C1=CCC(c2nnc3n2-c2ccc(Cl)cc2CNC3)CC1` (single isomer, unassigned; (+)) [Example 32, (+)-8-Chloro-1-[-4-(3-fluoro-pyridin-2-yl)-cyclohex-3-enyl]-5,6-dihydro-4H-2,3,5,10b-tetraaza-benzo[e]azulene], 38.9 nM. The result for `FC(F)(F)Oc1cccc(C2=CCC(c3nnc4n3-c3ccc(Cl)cc3CNC4)CC2)c1` (racemic) [Example 9, (RS)-8-Chloro-1-[4-(3-trifluoromethoxy-phenyl)-cyclohex-3-enyl]-5,6-dihydro-4H-2,3,5,10b-tetraaza-benzo[e]azulene hydrochloride] reads 331 nM.
